Columns and labels:
Assay in all cases: CTG-3D luminescence at 96 h relative to day-0 seeding control (ratio to day 0); higher = more growth / less cytotoxicity; PDxO 3D drug screen, 96 h, CTG-3D normalised to day-0 seeding control.
[1] = tested on: HCI-002 (organoid from a triple-negative breast cancer xenograft)
[2] = tested on: HCI-011.E2 (organoid from an ER-positive breast cancer xenograft)
[3] = tested on: HCI-015 (organoid from a triple-negative breast cancer xenograft)
[4] = tested on: HCI-023 (organoid from a triple-negative breast cancer xenograft)
[5] = tested on: MDA-MB-231

NC(=O)Nc1cc(-c2cccc(F)c2)sc1C(=O)N[C@H]1CCCNC1 [AZD7762]
CTG-3D luminescence at 96 h
Details | 12.5 pM | 0.00025 µM | 0.005 µM | 0.1 µM | 1 µM | 10 µM | 100 µM | 625 fM
[1], days in culture: 62 | 2.52 | 2.46 | 2.85 | 2.92 | 1.41 | 0.539 | 0.00339 | 3.08
[1], days in culture: 82 | 2.71 | 3.02 | 2.27 | 2.44 | 1.47 | 0.623 | 0.00321 | 2.87
[1], days in culture: 91 | 3.98 | 3.93 | 3.26 | 3.87 | 2.42 | 0.946 | 0.00426 | 4.19
[1], days in culture: 191 | 2.47 | 2.51 | 2.36 | 2.27 | 2 | 0.525 | 0.00388 | 2.69
[1], days in culture: 209 | 2.16 | 2.27 | 2.12 | 1.89 | 1.31 | 0.332 | 0.00089 | 2.27
[1], days in culture: 227 | 5.71 | 5.98 | 5.18 | 5.24 | 2.21 | 0.595 | -0.201 | 6.1
[2], days in culture: 74 | 2.04 | 2.16 | 1.88 | 1.68 | 1.62 | 1.33 | 0.00724 | 1.92
[3], days in culture: 172 | 2.49 | 1.87 | 2.19 | 0.668 | 0.336 | 0.117 | 0.000941 | 2.32
[3], days in culture: 191 | 1.83 | 1.42 | 1.11 | 0.566 | 0.248 | 0.12 | -0.000313 | 1.28
[3], days in culture: 218 | 1.16 | 1.65 | 1.65 | 0.692 | 0.211 | 0.102 | -0.000297 | 1.59
[4], days in culture: 111 | 1.36 | 1.49 | 1.15 | 0.765 | 0.201 | 0.0705 | -9.95e-05 | 1.52
[4], days in culture: 128 | 1.552 | 1.6 | 1.32 | 0.581 | 0.161 | 0.133 | 0.000895 | 1.67

CTG-3D luminescence at 96 h
Details | 12.5 pM | 0.00025 µM | 0.005 µM | 0.1 µM | 1 µM | 10 µM | 100 µM | 625 fM
[2] | 1.57 | 1.86 | 1.56 | 1.77 | 1.66 | 1.32 | 0.00993 | 1.71
[5] | 4.48 | 4.32 | 4.52 | 3.96 | 1.4 | 0.628 | 0.0187 | 4.49

C=CC(=O)N1CCC[C@@H](n2nc(-c3ccc(Oc4ccccc4)cc3)c3c(N)ncnc32)C1 [ibrutinib]
CTG-3D luminescence at 96 h
Details | 12.5 pM | 0.00025 µM | 0.005 µM | 0.1 µM | 1 µM | 10 µM | 100 µM | 625 fM
[1], days in culture: 62 | 2.83 | 2.33 | 2.92 | 2.77 | 1.54 | 1.45 | -0.0218 | 2.97
[1], days in culture: 82 | 3.16 | 2.97 | 2.43 | 2.38 | 1.77 | 1.32 | -0.0175 | 2.68
[1], days in culture: 91 | 3.98 | 3.44 | 3.33 | 3.61 | 2.11 | 1.75 | -0.0238 | 3.98
[1], days in culture: 191 | 2.76 | 2.47 | 2.21 | 2.23 | 1.69 | 1.34 | -0.014 | 2.82
[1], days in culture: 209 | 2.33 | 2.16 | 2.33 | 1.87 | 1.63 | 1 | -0.0179 | 2.34
[1], days in culture: 227 | 5.2 | 5.07 | 4.64 | 4.59 | 2.61 | 2.26 | -0.0321 | 5.19
[2], days in culture: 74 | 2.44 | 2.67 | 1.96 | 2.48 | 2.83 | 2.44 | 0.00445 | 2.75
[3], days in culture: 172 | 2.54 | 1.92 | 2.32 | 1.06 | 1.37 | 1.14 | 7.09e-05 | 2.36
[3], days in culture: 191 | 1.91 | 1.22 | 1.64 | 1.03 | 0.827 | 0.68 | 0.00148 | 1.52
[3], days in culture: 218 | 1.88 | 1.37 | 1.76 | 1.6 | 1.4 | 1.33 | 0.00244 | 1.81
[4], days in culture: 111 | 1.24 | 1.25 | 1.32 | 1.2 | 1.03 | 1.02 | -0.00294 | 1.29
[4], days in culture: 128 | 1.42 | 1.43 | 1.55 | 1.48 | 1.26 | 1.03 | -0.00478 | 1.54

CTG-3D luminescence at 96 h
Details | 12.5 pM | 0.00025 µM | 0.005 µM | 0.1 µM | 1 µM | 10 µM | 100 µM | 625 fM
[2] | 1.7 | 1.71 | 1.45 | 2 | 2.1 | 2.03 | 0.00409 | 1.84
[5] | 4.49 | 4.45 | 4.49 | 4.64 | 4.82 | 4.66 | -0.0103 | 4.55

C[C@H](NC(=O)CCC(F)(F)F)C(=O)N[C@@H]1C(=O)N(CCO)c2ncccc2-c2ccccc21 [crenigacestat]
CTG-3D luminescence at 96 h
Details | 12.5 pM | 0.00025 µM | 0.005 µM | 0.1 µM | 1 µM | 10 µM | 100 µM | 625 fM
[1], days in culture: 62 | 2.87 | 2.47 | 2.56 | 2.68 | 2.3 | 2.72 | 2.8 | 2.91
[1], days in culture: 82 | 3.27 | 3.18 | 2.46 | 2.78 | 2.76 | 2.69 | 2.21 | 2.76
[1], days in culture: 91 | 3.89 | 3.6 | 2.93 | 3.44 | 3.36 | 3.56 | 2.88 | 3.82
[1], days in culture: 191 | 2.59 | 2.32 | 2.2 | 2.19 | 2.46 | 2.35 | 2.4 | 2.36
[1], days in culture: 209 | 2.47 | 2.47 | 2.22 | 1.91 | 2.27 | 1.93 | 2.41 | 2.29
[1], days in culture: 227 | 5.37 | 5.77 | 5.03 | 5.6 | 4.74 | 4.97 | 3.7 | 4.95
[2], days in culture: 74 | 2.42 | 2.44 | 1.96 | 2.06 | 2.51 | 2.95 | 2.45 | 2.02
[3], days in culture: 172 | 2.18 | 1.26 | 1.37 | 0.655 | 0.872 | 1.02 | 1.03 | 2.13
[3], days in culture: 191 | 1.82 | 1.27 | 0.914 | 0.48 | 0.414 | 0.657 | 0.695 | 1.32
[3], days in culture: 218 | 1.66 | 1.29 | 0.952 | 0.72 | 0.7 | 0.533 | 0.827 | 1.61
[4], days in culture: 111 | 1.05 | 1.15 | 1.17 | 0.954 | 0.7 | 1.28 | 0.926 | 1.3
[4], days in culture: 128 | 1.4 | 1.35 | 1.31 | 1.51 | 1.05 | 1.52 | 1.13 | 1.53

CTG-3D luminescence at 96 h
Details | 12.5 pM | 0.00025 µM | 0.005 µM | 0.1 µM | 1 µM | 10 µM | 100 µM | 625 fM
[2] | 1.52 | 2.05 | 1.54 | 1.98 | 1.59 | 1.95 | 1.98 | 1.91
[5] | 4.47 | 4.32 | 4.4 | 4.27 | 4.51 | 4.53 | 4.69 | 4.5

Nc1ccn([C@@H]2O[C@H](CO)[C@@H](O)C2(F)F)c(=O)n1 [gemcitabine]
CTG-3D luminescence at 96 h
Details | 12.5 pM | 0.00025 µM | 0.005 µM | 0.1 µM | 1 µM | 10 µM | 100 µM | 625 fM
[1], days in culture: 62 | 2.82 | 2.59 | 2.68 | 0.347 | 0.301 | 0.302 | 0.333 | 2.87
[1], days in culture: 82 | 3.16 | 3.03 | 2.46 | 0.461 | 0.431 | 0.271 | 0.234 | 3.23
[1], days in culture: 91 | 4.24 | 3.02 | 3.08 | 0.544 | 0.381 | 0.346 | 0.287 | 3.87
[1], days in culture: 191 | 2.63 | 2.79 | 2.69 | 0.517 | 0.487 | 0.295 | 0.366 | 2.52
[1], days in culture: 209 | 2.52 | 2.33 | 2.08 | 0.339 | 0.32 | 0.178 | 0.242 | 2.33
[1], days in culture: 227 | 5.51 | 5.33 | 4.57 | 1.05 | 0.78 | 0.657 | 0.547 | 4.99
[2], days in culture: 74 | 2.11 | 2.93 | 2.13 | 2.09 | 2.18 | 2.75 | 2.12 | 2.22
[3], days in culture: 172 | 2.22 | 1.3 | 1.95 | 0.109 | 0.123 | 0.136 | 0.152 | 2.75
[3], days in culture: 191 | 2.28 | 1.52 | 0.975 | 0.116 | 0.114 | 0.105 | 0.109 | 1.5
[3], days in culture: 218 | 1.86 | 1.48 | 0.887 | 0.138 | 0.105 | 0.107 | 0.0645 | 1.8
[4], days in culture: 111 | 1.4 | 1.31 | 1.05 | 0.265 | 0.33 | 0.28 | 0.0585 | 1.43
[4], days in culture: 128 | 1.62 | 1.78 | 1.15 | 0.416 | 0.26 | 0.399 | 0.0826 | 1.9

CTG-3D luminescence at 96 h
Details | 12.5 pM | 0.00025 µM | 0.005 µM | 0.1 µM | 1 µM | 10 µM | 100 µM | 625 fM
[2] | 1.72 | 1.78 | 1.43 | 1.87 | 1.54 | 1.78 | 1.6 | 1.9
[5] | 4.42 | 4.37 | 4.14 | 2.62 | 2 | 1.11 | 0.848 | 4.44

Source: the supplement of paper PMC8882468
